Experimental findings from patent US8273900B2, “Organic compounds” (Novartis AG, priority 2008, dated 2012) are described below.

Usually IC50 stands for the point on the concentration scale where inhibition reaches its midpoint.

Structures can show the parent of a compound that is named as a salt.

The target in the test is T1, human recombinant CRF-1 receptor (Homo sapiens, UniProt P34998).
T1 construct: expressed in transfected cells; host or cells: CHO cells (G418-selected)
T1 sequence (P34998 24-415): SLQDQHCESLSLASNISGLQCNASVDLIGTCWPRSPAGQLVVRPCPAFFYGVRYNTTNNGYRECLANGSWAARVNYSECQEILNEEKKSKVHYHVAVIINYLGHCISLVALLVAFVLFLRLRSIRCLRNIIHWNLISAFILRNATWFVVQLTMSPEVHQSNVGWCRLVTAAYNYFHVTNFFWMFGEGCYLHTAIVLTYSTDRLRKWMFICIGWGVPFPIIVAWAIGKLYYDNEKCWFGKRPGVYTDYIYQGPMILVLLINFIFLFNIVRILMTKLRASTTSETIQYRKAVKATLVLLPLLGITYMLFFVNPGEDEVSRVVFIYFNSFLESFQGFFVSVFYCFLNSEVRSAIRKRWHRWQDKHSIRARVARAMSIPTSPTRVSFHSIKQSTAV
In words: CRF-1 receptor antagonism, HTRF cAMP assay in CHO cells in the presence of 1 nM CRF. The note with it: CHO cells expressing human recombinant CRF-1; inhibition of the effect of 1 nM CRF on cAMP. Type of test: cell-based. (In general: Time-resolved FRET reads energy transfer from a long-lived donor to a nearby acceptor.)
Turning to `C[C@@H]1C[C@@H](NC(=O)c2cc(C(F)(F)F)ccc2Cl)CC[C@@H]1CNc1cc(-c2ccc(F)cc2)[nH]n1` (racemic) [Example 1.35a, (+/−)-2-Chloro-N-((1S,3R,4S)-4-{[5-(4-fluoro-phenyl)-1H-pyrazol-3-ylamino]-methyl}-3-methyl-cyclohexyl)-5-trifluoromethyl-benzamide], the IC50 worked out at 199 nM.

As to `CN(C)Cc1ccc(NC[C@H]2CC[C@H](NC(=O)c3cc(C(F)(F)F)ccc3Cl)CC2)nc1` [Example 1.34, Trans-2-Chloro-N-{4-[(5-dimethylaminomethyl-pyridin-2-ylamino)-methyl]-cyclohexyl}-5-trifluoromethyl-benzamide hydrochloride], the IC50 came out at 1240 nM. Consider `Cc1cnc(NC[C@H]2CC[C@H](NC(=O)c3cc(C(F)(F)F)ccc3Cl)CC2)s1` [Example 2.5, Trans-2-Chloro-N-{4-[(5-methyl-thiazol-2-ylamino)-methyl]-cyclohexyl}-5-trifluoromethyl-benzamide], for which the IC50 was 36 nM.

Take `Cc1cccc(NC[C@H]2CC[C@H](NC(=O)c3cc(C(F)(F)F)ccc3Cl)CC2)n1` [Example 2.9, Trans-2-Chloro-N-{4-[(6-methyl-pyridin-2-ylamino)-methyl]-cyclohexyl}-5-trifluoromethyl-benzamide]: the IC50 was found to be 39 nM.

As for `Cc1[nH]nc(NC[C@H]2CC[C@H](NC(=O)c3cc(C(F)(F)F)ccc3Cl)CC2)c1-c1ccc(Cl)cc1` [Example 19.91, Trans-2-chloro-N-(4-((4-(4-chlorophenyl)-5-methyl-1H-pyrazol-3-ylamino)methyl)cyclohexyl)-5-(trifluoromethyl) benzamide], the IC50 was found to be 57 nM.

As for `CCc1cncc(NC[C@H]2CC[C@H](NC(=O)c3cc(C(F)(F)F)ccc3Cl)CC2)c1` [Example 19.53, Trans-2-chloro-N-(4-((5-ethylpyridin-3-ylamino)methyl)cyclohexyl)-5-(trifluoromethyl) benzamide], the IC50 was determined as 28 nM.

Regarding `CCCc1cc(NC[C@H]2CC[C@H](NC(=O)c3cc(Cl)cnc3C)CC2)n[nH]1` [Example 19.110, Trans-2-Chloro-2 methyl-N-{4-[(5-propyl-1H-pyrazol-3-ylamino)-methyl]-cyclohexyl}-nicotinamide], the IC50 came out at 97 nM. With `Cc1nn(C[C@H]2CC[C@H](NC(=O)c3cc(C(F)(F)F)ccc3Cl)CC2)c(C)c1Cl` [Example 21.8, 2-Chloro-N-[4-(4-chloro-3,5-dimethyl-pyrazol-1-ylmethyl)-cyclohexyl]-5-trifluoromethyl-benzamide] the figure was 113 nM. With `Cc1ccc2c(NC[C@H]3CC[C@H](NC(=O)c4cc(C(F)(F)F)ccc4Cl)CC3)n[nH]c2n1` [Example 19.74, Trans-2-chloro-N-(4-((6-methyl-1H-pyrazolo[3,4-b]pyridin-3-ylamino)methyl)cyclohexyl)-5-(trifluoromethyl) benzamide] the figure was 54 nM. As to `O=C(N[C@H]1CC[C@H](CNc2ccccc2)CC1)c1cc(C(F)(F)F)ccc1Cl` [Example 4.33, Trans-2-Chloro-N-(4-phenylaminomethyl-cyclohexyl)-5-trifluoromethyl-benzamide], the IC50 is 50 nM. With `Cc1nc(NC[C@H]2CC[C@H](NC(=O)c3cc(C(F)(F)F)ccc3Cl)CC2)sc1C` [Example 3, Trans-2-chloro-N-{4-[(4,5-dimethyl-thiazol-2-ylamino)-methyl]-cyclohexyl}-5-trifluoromethyl-benzamide] the figure was 60 nM; with `[2H]C([2H])([2H])c1ncc(NC[C@H]2CC[C@H](NC(=O)c3cc(C(F)(F)F)ccc3Cl)CC2)cc1Cl` [Example 19.104, Trans-2-Chloro-N-{4-[(5-chloro-6-d3-methyl-pyridin-3-ylamino)-methyl]-cyclohexyl}-5-trifluoromethyl-benzamide], 80 nM.

On to `Cc1c(NC[C@H]2CC[C@H](NC(=O)c3cc(C(F)(F)F)ccc3Cl)CC2)n[nH]c1-c1ccccc1` [Example 19.79, Trans-2-chloro-N-(4-((4-methyl-5-phenyl-1H-pyrazol-3-ylamino)methyl)cyclohexyl)-5-(trifluoromethyl) benzamide], for which the half-maximal inhibitory concentration (IC50) worked out at 37 nM. With `Cc1cc(NC[C@H]2CC[C@H](NC(=O)c3cc(Cl)cnc3C)CC2)ncc1Cl` [Example 19.83, Trans-5-chloro-N-(4-((5-chloro-4-methylpyridin-2-ylamino)methyl)cyclohexyl)-2-methyl-nicotinamide] the figure was 38 nM; with `O=C(N[C@H]1CC[C@H](CNc2cccnc2)CC1)c1cc(C(F)(F)F)ccc1Cl` [Example 4.21, Trans-2-Chloro-N-[4-(pyridin-3-ylaminomethyl)-cyclohexyl]-5-trifluoromethyl-benzamide], 76 nM; with `Cc1ncc(Cl)cc1C(=O)N[C@H]1CC[C@H](CNc2nc(C)c(C)s2)CC1` [Example 5.14, Trans-5-Chloro-N-{4-[(4,5-dimethyl-thiazol-2-ylamino)-methyl]-cyclohexyl}-2-methyl-nicotinamide], 66 nM. With `CCCc1cc(NC[C@H]2CC[C@H](NC(=O)c3cc(C(F)(F)F)ccc3Cl)CC2)n[nH]1` [Example 4.15, Trans-2-Chloro-N-{4-[(5-propyl-1H-pyrazol-3-ylamino)-methyl]-cyclohexyl}-5-trifluoromethyl-benzamide] the figure was 61 nM.
